The source of these data is patent publication US7235262B2, “Use of bioactive fraction from cow urine distillate (‘Go-mutra’) as a bio-enhancer of anti-infective, anti-cancer agents and nutrients” (Council of Scientific and Industrial Research, priority 2000, dated 2007).

Structures are written as SMILES. Converted amounts (≈) assume the structure as drawn. Where two headings read alike, the source gives them in different places.

One series has as its system Mycobacterium smegmatis. Description: Broth assay for bio-enhancement of antibiotic killing, Mycobacterium smegmatis. Conditions: antibiotic 0.5 μg/ml; cow urine distillate 1 μl/mL.
In a further series the test system is Escherichia coli. Description: Broth assay for bio-enhancement of antibiotic killing, Gram-negative bacterium. Conditions: cow urine distillate 1 μl/mL.
In another series the test system is Bacillus subtilis. The series is described as follows: Broth assay for bio-enhancement of antibiotic killing, Gram-positive bacterium. As to conditions: cow urine distillate 1 μl/mL.
Series [1] concerns fungal strains. Description: organism not typed. Conditions: read-out: Minimum inhibitory Concentration (MIC).
Description: (§1) The methodology followed by us for this screening included specifically designed bioassays as described below.
(§2) For this, the cells are treated with compound for 4 to 8 hours and then washed free of it by centrifugation and washing in sterile water. This was followed by treatment with antibiotic as in steps b to d.
(§3) The Concentration of the Active Fraction is Kept at 10 μg/ml.
Series [2] concerns fungal strains. As to conditions: active fraction Gm-IV, where present, at 10 μg/ml.
Description: as §1, §2, §3
Series [3] deals with oxyR mutant of bacterium Escherichia coli. It is filed as cell-based.
The nature of series [4]: Bioavailability test through biological membrane (U-tube). It is filed as in vitro ADME, goat. Conditions: Rifampicin 1 mg/ml, Fraction Gm-IV (where present) 1.0 μg/ml.
The subject of series [5] is MCF-7 (Breast cancer cell line). It counts as cell-based. As to conditions: for Final titre of viable cells upon treatment with taxol alone / Final titre of viable cells upon treatment with taxol + cow urine distillate: MCF-7, count after 36 hours; for Final titre of viable cells upon treatment with taxol + cow urine distillate: cow urine distillate 1 μl/ml.

Description for Bacillus subtilis: as §2
(§4) In the next step of elucidation of the enhancer action, the applicants experimented with the killing activities of different antibiotics against the bacteria singly and in combination with the test component (cow urine distillate) following the method described above. […] In all the experiments the cow urine distillate concentration was kept at 1 μl/mL unless it is specifically mentioned.
Description for Mycobacterium smegmatis: as §2, §4

As to `CC1(C)S[C@@H]2[C@H](NC(=O)[C@H](N)c3ccccc3)C(=O)N2[C@H]1C(=O)O` [Ampicillin], the “Fold enhancement in antibiotic activity” value in the series on Mycobacterium smegmatis was 11.6; in the series with Escherichia coli (antibiotic 4 μg/ml), 1.85; in the series with Escherichia coli (antibiotic 6 μg/ml), 4.50; with Escherichia coli (antibiotic 8 μg/ml), 5.00; in the series on Bacillus subtilis (antibiotic 0.1 μg/ml) it was 3.3; with Bacillus subtilis (antibiotic 0.5 μg/ml), 3.0.
Consider `Clc1ccccc1C(c1ccccc1)(c1ccccc1)n1ccnc1` [Clotrimazol], for which the MIC with fungal strains [1] was 4.4 µg/mL (≈ 12.8 µM). Moreover, the Fold enhancement in the series on fungal strains [2] amounted to 0.0.
Consider `NNC(=O)c1ccncc1` [Isoniazid], for which the “enhancement action of the distillate for INH” value in series [3] was “enhancement action”.
Turning to `CO[C@H]1/C=C/O[C@@]2(C)Oc3c(C)c(O)c4c(O)c(c(/C=N/N5CCN(C)CC5)c(O)c4c3C2=O)NC(=O)/C(C)=C\C=C\[C@H](C)[C@H](O)[C@@H](C)[C@@H](O)[C@@H](C)[C@H](OC(C)=O)[C@@H]1C` [Rifampicin], the “OD measured as Absorbance across the membrane in receiving tube” value is listed as 0.0097 in series [4] (A340, after 1 hr); 0.0214 in series [4] (A340, after 2 hr); 0.0771 in series [4] (A340, after 4 hr); 0.0858 in series [4] (A340, after 5 hr); 0.0910 in series [4] (A340, after 6 hr); 0.0177 in series [4] (A475, after 1 hr). The “OD measured as Absorbance across the membrane in receiving tube” value in series [4] (A475, after 2 hr) was 0.0284; in series [4] (A475, after 3 hr), 0.0309; in series [4] (A475, after 4 hr), 0.0412; in series [4] (A475, after 5 hr), 0.0484; in series [4] (A475, after 6 hr) it was 0.0496.
With `CC(=O)O[C@H]1C(=O)[C@@]2(C)[C@H]([C@H](OC(=O)c3ccccc3)[C@]3(O)C[C@H](OC(=O)[C@H](O)[C@@H](NC(=O)c4ccccc4)c4ccccc4)C(C)=C1C3(C)C)[C@]1(OC(C)=O)CO[C@@H]1C[C@@H]2O` [Taxol, Paclitaxel], the “Final titre of viable cells upon treatment with taxol alone” value in series [5] (Taxol 0.001 μg/ml) is listed as 0.059 × 10^6; in series [5] (Taxol 0.005 μg/ml), 0.042 × 10^6; in series [5] (Taxol 0.01 μg/ml), 0.036 × 10^6. Besides, the “Final titre of viable cells upon treatment with taxol + cow urine distillate” value in series [5] (Taxol 0.001 μg/ml) is given as 0.039 × 10^6; in series [5] (Taxol 0.005 μg/ml), 0.032 × 10^6; in series [5] (Taxol 0.01 μg/ml) it was 0.012 × 10^6. Also, in series [5] (cancerous cell line MCF-7), the “killing action of Taxol with cow urine distillate” value is reported as “increased”. For the same molecule, the “enhancement in the activity of taxol by the distillate” value in series [5] (distillate at 1 μl/ml) is listed as “at least 5 folds”.
